Source: US20250109154A1, “LYSOPHOSPHATIDYLSERINE ANALOGUE, AND LYSOPHOSPHATIDYLSERINE ANALOGUE-CONTAINING PHAMACEUTICAL COMPOSITION FOR TREATING OR PREVENTING FIBROSIS” (THE UNIVERSITY OF TOKYO, priority 2022, published 2025)

Legend:
[1] = test system: mouse model of liver fibrosis; assay: Mouse model of liver fibrosis (thioacetamide): liver immunohistochemistry and quantitative real time PCR; type: in vivo, C57BL/6J mice; details: TAA mouse, 20 mg/kg subcutaneously every 24 hours for 14 days
Experimental: Seven-week-old C57BL/6J mice were purchased from CLEA Japan, Inc. (Tokyo, Japan). All animals were reared in a standard specific pathogen-free room in the animal facility of the Institute for Quantitative Biosciences, University of Tokyo. For a mouse model of liver fibrosis, thioacetamide (TAA) was administered together with drinking water (0.06% v/v), starting 7 weeks before the administration of the compound. After 7 weeks of rearing with TAA-containing water, a vehicle (200 μL of PBS, containing 5% DMSO) or 20 mg/kg (200 μL of PBS, containing 5% DMSO) of Compound (II) was subcutaneously administered every 24 hours for a total period of 14 days. The mice were sacrificed 24 hours after the last injection.
Liver tissue samples were fixed overnight at 4° C. with Zamboni's fixative (FUJIFILM Wako Pure Chemical Corporation) or Mildform (registered trademark) 10N (FUJIFILM Wako Pure Chemical Corporation). For immunofluorescence staining, the liver tissue fixed with Zamboni's fixative was washed with PBS, and the medium was replaced with a 30% (w/v) sucrose solution. Frozen tissue was prepared by embedding the tissue in a Tissue-Tek (registered trademark) O.C.T. compound (Sakura Finetek Japan) and freezing the resultant in liquid nitrogen. Liver cryosections (8 μm) were mounted on slide glasses, rehydrated, and autoclaved in Target Retrieval Solution (lx, Dako) at 90° C. for 20 min for epitope retrieval. The sections were blocked with 0.3% BSA/PBS for 1 hour at room temperature. After washing with PBS, αSMA (Dako), CollagenI (Bio-Rad Laboratories, Inc.), Ki67 (Santa Cruz), and Hoechst33342 (Sigma-Aldrich) were each added as a first antibody, and the mixture was reacted overnight at 4° C. On the next day, the sections were washed with PBS and then reacted with Invitrogen Alexa Fluor (theromo Fisher) as a second antibody. The section specimens were hermetically sealed and observed with a fluorescence microscope (Keyence BZ-X810). The range of positive CollagenI was quantified using Ratiocollagen I=Areacollagen I/Areatotal.
(§1) Total RNA of mouse liver tissue was extracted using NucleoSpin RNA Plus kit (Takara Bio) according to the product protocol. Purified RNA was reverse transcribed using High-Capacity cDNA RT Kits (Thermo Fisher Scientific) according to the product protocol. PCR was performed using TB Green Premix Ex Taq II (Takara Bio) and monitored with a LightCycler96 (Roche Life Science). The number of transcripts was standardized by the number of GAPDHs, which are housekeeping genes.

[2] = test system: LX-2 cells (human hepatic stellate cells); assay: Expression of marker genes for fibrosing in LX-2 cells (quantitative real time PCR); type: cell-based; details: 5 μM, co-cultured 48 hours, vs DMSO, standardized by GAPDH, FIG. 1
Experimental: LX-2 cells (human hepatic stellate cells) (sigma-aldrich, reference document: Gut 2005, 54 (1), 142-151) were seeded in 12-well tissue culture plates (5×10^4 cells/well) and cultured in Dulbecco's Modified Eagle's Medium (high glucose) (Thermo Fisher Scientific) together with 10% FBS (Fetal Bovine Serum) and 100× penicillin-streptomycin-glutamine (PSG) in a 5% CO2 humidified incubator at 37° C. After 48 hours, the cells were stimulated with dimethyl sulfoxide (DMSO), Compound (II), and Compound (III) (5 μM) (final concentration of DMSO was 0.02%) and co-cultured for another 48 hours. Thereafter, the cells were lysed using a lysis buffer (MACHEREY-NAGEL GmbH & Co. KG).
as §1, with “LX-2 cells” for “mouse liver tissue”

[3] = test system: quiescent hepatic stellate cell-like cells (qHSC-like cells); assay: Expression of marker genes for fibrosing in quiescent hepatic stellate cell-like cells derived from human iPS cells (quantitative real time PCR); type: cell-based; details: 1 or 2 μM, 4 hours of incubation, FIG. 3
Experimental: Quiescent hepatic stellate cell-like cells (qHSC-like cells) were induced by the methods described in Koui et al., Stem Cell Reports 2021, PCT/JP2020/006147, and PCT/JP2016/58411. qHSC-like cells derived from ACTA2-RFP […] iPS cells were seeded in a collagen-coated 12-well plate at a density of 7×10^4 cells/well in Stempro-34 SFM medium (Gibco medium, theromo Fisher) supplemented with Y27632 (10 μM) and 100×PSG. After 24 hours of culture, Compound (II) was dissolved in Stempro-34 SFM medium (100×PSG), and then the solution was added such that the final concentration of Compound (II) was 1 or 2 μM. After 4 hours of incubation, the cells were lysed, and total RNA was extracted using NucleoSpin RNA Plus kit (Takara Bio).
as §1, with “derived from iPS cell-derived qHSC” for “of mouse liver tissue”

[4] = test system: primary cultured human lung fibroblasts; assay: Expression of marker genes for fibrosing in primary cultured human lung fibroblasts (quantitative real time PCR); type: cell-based; details: 48 hours
Experimental: (§2) Primary cultured human renal fibroblasts (ATCC), primary cultured human lung fibroblasts (Cosmo Bio), or primary cultured human pancreatic fibroblasts (K.A.C.) were each seeded in 12-well tissue culture plates (5×10^4 cells/well) and cultured in Minimum Essential Medium (lx) (Gibco, Thermo Fisher Scientific) together with 10% FBS (Fetal Bovine Serum) and 100× antifungal antibiotic solution (Sigma-Aldrich) in a 5% CO2 humidified incubator at 37° C. After 48 hours, the cells were stimulated with dimethyl sulfoxide (DMSO), Compound (II), and/or Compound (III) (5 μM) (final concentration of DMSO was 0.02%) and co-cultured for another 48 hours. Cells that are activated by TGFβ1 (FUJIFILM Wako Pure Chemical Corporation), a fibroblast growth and activation factor, were stimulated with TGFβ1 (20 ng/ml) 72 hours after seeding, and after 48 hours, the cells were stimulated with dimethyl sulfoxide (DMSO), Compound (II), and/or Compound (III) (5 μM) (final concentration of DMSO was 0.02%) and co-cultured for another 48 hours. Thereafter, the cells were lysed using a lysis buffer (MACHEREY-NAGEL GmbH & Co. KG).
(§3) Quantitative real-time PCR analysis was performed in the same manner as in Example 5.

[5] = test system: primary cultured human skin fibroblasts; assay: Expression of marker genes for fibrosing in primary cultured human skin fibroblasts (quantitative real time PCR); type: cell-based; details: 48 hours
Experimental: Primary cultured human skin fibroblasts (Tokyo University School of Medicine) were seeded in 12-well tissue culture plates (7×10^4 cells/well) and cultured in Dulbecco's Modified Eagle's Medium (high glucose) together with 10% FBS (Fetal Bovine Serum) and 100× penicillin-streptomycin-glutamine (PSG) in a 5% CO2 humidified incubator at 37° C. After 48 hours, the cells were stimulated with dimethyl sulfoxide (DMSO), Compound (II), and Compound (III) (5 μM) (final concentration of DMSO was 0.02%) and co-cultured for another 48 hours. Cells activated with TGFβ1 (FUJIFILM Wako Pure Chemical Corporation) were stimulated with TGFβ1 (20 ng/ml) 72 hours after seeding, and after 48 hours, the cells were stimulated with dimethyl sulfoxide (DMSO), Compound (II), and Compound (III) (5 μM) (final concentration of DMSO was 0.02%) and co-cultured for another 48 hours. Thereafter, the cells were lysed using a lysis buffer (MACHEREY-NAGEL GmbH & Co. KG).
as §3

[6] = test system: primary cultured human pancreatic fibroblasts; assay: Expression of marker genes for fibrosing in primary cultured human pancreatic fibroblasts (quantitative real time PCR); type: cell-based; details: 48 hours
Experimental: as §2, §3

[7] = test system: LX-2 cells; assay: Immunostaining of αSMA and CollagenI in LX-2 cells; type: cell-based, human; details: 3 μM, vs DMSO group, FIG. 2
Experimental: LX-2 cells were cultured in the same manner as in Example 1, except that the concentration of Compound (II) was changed to 3 μM.
LX-2 cells were fixed in Mildform (registered trademark) 10N (FUJIFILM Wako Pure Chemical Corporation) at room temperature for 10 minutes and washed with PBS. Membranes were permeabilized using 0.2% Triton X-100. The cells were blocked at room temperature for one hour using 5% skim milk or 0.3% BSA/PBS. After washing with PBS, αSMA (Dako), CollagenI (Abcam), and Hoechst33342 (Sigma-Aldrich) were each added as a first antibody, and the mixture was reacted overnight at 4° C. On the next day, the cells were washed with PBS and then reacted with Invitrogen Alexa Fluor (theromo Fisher) as a second antibody. The cells were observed under a fluorescence microscope (Keyence BZ-X810).

[8] = test system: primary cultured human renal fibroblasts; assay: Expression of marker genes for fibrosing in primary cultured human renal fibroblasts (quantitative real time PCR); type: cell-based; details: 48 hours
Experimental: as §2, §3

[9] = not stimulated with TGFβ1, 5 μM, FIG. 9
[10] = stimulated with TGFβ1 (20 ng/ml), 5 μM, FIG. 10
[11] = not stimulated with TGFβ1, 5 μM, FIG. 13
[12] = stimulated with TGFβ1 (20 ng/ml), 5 μM, FIG. 14
[13] = not stimulated with TGFβ1, 5 μM, FIG. 11
[14] = stimulated with TGFβ1 (20 ng/ml), 5 μM, FIG. 12
[15] = not stimulated with TGFβ1, 5 μM, FIG. 7
[16] = stimulated with TGFβ1 (20 ng/ml), 5 μM, FIG. 8

| SMILES | positive range of CollagenI in liver tissue sections (Area collagen I/Area total) ([1]; vs vehicle, FIG. 4) | Ki67 staining of liver tissue sections (cell proliferation capability) ([1]; vs vehicle, FIG. 5) | expression of αSMA and CollagenI in liver tissue sections (immunostaining) ([1]; vs vehicle, FIG. 5) | expression levels of the marker genes for fibrosing (COL1A1, COL3A1) in liver tissue ([1]; FIG. 6) | expression levels of the marker genes for fibrosing (ACTA2, COL1A1, COL3A1) [2] | expression levels of the marker genes for fibrosing (ACTA2, COL1A1, COL3A1) [3] | expression levels of the marker genes for fibrosing (ACTA2, COL1A1, COL3A1) [4, 9] | expression levels of the marker genes for fibrosing (ACTA2, COL1A1, COL3A1) [4, 10] | expression levels of the marker genes for fibrosing (ACTA2, COL1A1, COL3A1) [5, 11] | expression levels of the marker genes for fibrosing (ACTA2, COL1A1, COL3A1) [5, 12] | expression levels of the marker genes for fibrosing (ACTA2, COL1A1, COL3A1) [6, 13] | expression levels of the marker genes for fibrosing (ACTA2, COL1A1, COL3A1) [6, 14] | expression of αSMA and CollagenI (immunostaining) [7] | expression levels of the marker genes for fibrosing (ACTA2, COL1A1, COL3A1) [8, 15] | expression levels of the marker genes for fibrosing (ACTA2, COL1A1, COL3A1) [8, 16] |
| --- | --- | --- | --- | --- | --- | --- | --- | --- | --- | --- | --- | --- | --- | --- | --- |
| CC(C)(C)c1cc(-c2ccc(Oc3ccccc3CCC(=O)OCCCOP(=O)(O)OCC(N)C(=O)O)cc2)cc(C(C)(C)C)c1 (stereo not drawn) [Compound (II)] | small | larger area stained in red | suppressed | decreased | decreased | decreased | decreased | decreased | decreased | decreased | decreased | decreased | suppressed | decreased | decreased |
| NC(COP(=O)(O)OCCCOC(=O)CCc1ccccc1Oc1ccc(-c2cc(-c3ccccc3)cc(-c3ccccc3)c2)cc1)C(=O)O (stereo not drawn) [Compound (III)] |  |  |  |  | decreased |  | decreased | decreased | decreased | decreased | decreased | decreased |  | decreased | decreased |
